# From paper PMC5701137, “Discovery of novel choline acetyltransferase inhibitors using structure-based virtual screening” (Scientific Reports, 2017)
# Several values for one entry are separate records, joined by “and”; a condition that tells them apart may be missing. Identical values can stand only once.
# How the values were obtained:
# [1] = molecular target: T1, recombinant human AChE (Homo sapiens, UniProt P22303); assay: Modified Ellman's colorimetric assay for AChE and kinetic studies; assay type: biochemical; conditions: for inhibition at 200 µM: read-out: AChE % IR (inhibition rate); for Ki / IC50: mean of two experiments; for IC50: substrate ATC 0.5 mM
# T1 construct: purchased Sigma C1682
# T1 sequence (P22303 32-614): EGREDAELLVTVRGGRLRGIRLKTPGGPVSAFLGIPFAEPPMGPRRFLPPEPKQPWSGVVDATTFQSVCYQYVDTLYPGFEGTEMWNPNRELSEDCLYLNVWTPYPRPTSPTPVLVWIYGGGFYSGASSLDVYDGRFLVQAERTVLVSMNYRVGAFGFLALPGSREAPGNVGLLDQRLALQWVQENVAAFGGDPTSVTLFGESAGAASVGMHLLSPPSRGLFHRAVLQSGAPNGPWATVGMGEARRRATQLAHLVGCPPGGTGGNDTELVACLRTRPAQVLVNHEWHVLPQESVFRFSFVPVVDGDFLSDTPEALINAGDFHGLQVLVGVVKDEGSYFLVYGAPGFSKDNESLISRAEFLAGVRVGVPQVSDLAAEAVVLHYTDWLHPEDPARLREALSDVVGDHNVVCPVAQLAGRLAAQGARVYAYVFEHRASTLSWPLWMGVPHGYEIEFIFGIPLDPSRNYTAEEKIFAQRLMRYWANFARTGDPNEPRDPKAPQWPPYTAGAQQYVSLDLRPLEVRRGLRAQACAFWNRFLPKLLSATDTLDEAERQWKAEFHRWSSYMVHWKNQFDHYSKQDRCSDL
# From the text: (§1) A modified version of Ellman’s colorimetric assay[16],[17] was adapted to a high throughput assay for the enzymatic activity of BuChE and AChE. The reagent, butyrylthiocholine iodide (BTC), acetylthiocholine iodide (ATC), 5,5′-dithiobis (2-nitrobenzoic acid) (DTNB) were purchased from Sigma-Aldrich (St. Louis, MO, USA). The modified assay details are as previously described[34],[35]. The main modification concerned with the high throughput adaptation of the assay for use in 384-well plates. Briefly, 25 μL/well of a 1:450 diluted solution of a pooled human plasma and 1:768 diluted (3.5 ng/ml final concentration) purified recombinant human AChE protein (Sigma, Cat no. C1682) was used for measurement of BuChE and AChE activity, respectively. In the initial in vitro screening step, the wells were pre-incubated with 25 μL/wells of different Asinex compounds for 10–30 minutes at room temperature. The concentration of the compounds working solution was 3X to give a final concentration of 200 μM in a final volume of 75 μL in each well. The stock concentration of the compounds were prepared in 100% DMSO. The stock concentration was chosen usually at 10 mM, allowing the final DMSO concentration in the wells to be less than 4%. Finally, 25 μL of a cocktail mix prepared in Na/K phosphate buffer, containing DTNB (final concentration 0.4 mM) and BTC, (final concentration 1 mM) or ATC (final concentration 0.5 mM) was added to each well and the changes in absorbance was monitored at 412 nm wavelength for 15–20 minutes with one-minute interval, using a microplate spectrophotometer reader (Infinite M1000, Tecan). The rate of the enzyme activity was determined from the linear part of the kinetic reaction curves as ∆OD/time.
# (§2) For kinetic studies, a similar protocol as inhibition assay was followed; a dilution series of five different concentrations ranging from 10^−6 to 10^−9 M were prepared for each selected Asinex compounds. For ChAT, the A-CoA was kept constant at 10 μM (final) but the concentration of choline chloride varied between 320–10 μM. For BuChE, BTC was used as the substrate in the concentrations ranging from 0.0625 to 2 mM. For AChE, ATC was used as the substrate in the concentrations ranging from 0.0312 to 1 mM. Each compound concentration was measured in duplicates. The rate of enzyme activity (as ∆OD/hr kinetic data) was calculated and processed using the GraphPad Prism 7 analysis software. The inhibitory constant (Ki) values were determined from the dose-response curve and the half-maximal inhibitory concentration (IC50) values were calculated by plotting the percentage enzyme activity vs. the log of the Asinex compound concentrations and fitting the data using the nonlinear regression Enzyme Kinetics-Inhibition function.
# [2] = molecular target: T2, plasma BuChE (Homo sapiens, UniProt P06276); assay: Modified Ellman's colorimetric assay for BuChE (pooled human plasma) and kinetic studies; assay type: biochemical; conditions: for inhibition at 200 µM: read-out: BuChE % IR (inhibition rate)
# T2 construct: 1:450 diluted solution of a pooled human plasma; from tissue; host or cells: pooled human plasma
# T2 sequence (P06276 29-602): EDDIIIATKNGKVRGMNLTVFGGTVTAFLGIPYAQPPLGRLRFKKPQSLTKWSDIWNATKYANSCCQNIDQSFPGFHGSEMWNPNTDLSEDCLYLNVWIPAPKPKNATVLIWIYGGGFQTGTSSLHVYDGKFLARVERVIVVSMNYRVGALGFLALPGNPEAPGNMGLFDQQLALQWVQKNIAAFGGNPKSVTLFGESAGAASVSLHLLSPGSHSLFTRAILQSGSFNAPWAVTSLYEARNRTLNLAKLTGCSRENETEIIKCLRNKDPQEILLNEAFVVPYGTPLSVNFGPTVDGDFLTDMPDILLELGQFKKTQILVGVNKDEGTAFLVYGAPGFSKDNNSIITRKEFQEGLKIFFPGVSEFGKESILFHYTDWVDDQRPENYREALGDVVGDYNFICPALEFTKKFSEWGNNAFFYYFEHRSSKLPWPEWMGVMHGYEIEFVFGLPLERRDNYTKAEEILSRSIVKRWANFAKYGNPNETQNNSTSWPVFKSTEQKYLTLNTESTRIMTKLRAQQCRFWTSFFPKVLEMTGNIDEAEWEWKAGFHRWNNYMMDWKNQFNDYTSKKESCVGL
# From the text: as §1, §2
# [3] = system: HEK 293 cells; assay: MTT cell viability assay; assay type: cell-based; conditions: overnight, control cells 100%, mean ± SD of 3 readings
# Description: Finally, to assess the prospective of the identified compounds for further development into ChAT ligands, we assessed the compounds active against ChAT, AChE and BuChE, for their cellular toxicity on human embryonic kidney (HEK 293) cells using the cell viability 3-(4,5-dimethylthiazol-2-yl)-2,5-diphenyltetrazolium bromide (MTT) assay. All compounds were evaluated at 10 and 50 µM concentrations. The cell viability data is given in Table 4 (also represented as a bar chart in Fig. 9).
# The in vitro cellular toxicity of the active compounds was evaluated using MTT assay. Briefly, Human embryonic kidney epithelial (HEK-293) cells cultured at 37 °C in a humidified environment with 5% CO2 in Dulbecco’s Modified Eagle’s medium (DMEM) in 96 well plate to obtain 70–80% confluency. Further, the cells were incubated overnight at 37 °C with 10 µM and 50 µM compounds in triplicate. Cells treated with 1% DMSO were used as controls. At the end of the treatment (12 h), 10 μL of 12 mM MTT dissolved in Phosphate buffer saline pH 7.4, was added to each well and incubated for an additional 2 h at 37 °C. The media was then removed from the plate and 100 µL of DMSO was added to dissolve the violet formazan crystals. Finally, the absorbance was measured at 540 nm with a reference wavelength of 630 nm on Tecan spectrophotometer with shaking before the reading. The percentage viability was calculated taking 1% DMSO control as 100 percent and presented as mean ± SD.
# [4] = molecular target: T3, human rChAT (Homo sapiens, UniProt P28329); assay: In vitro ChAT activity inhibition fluorometric assay and kinetic studies; assay type: biochemical; conditions: for inhibition at 100 µM: read-out: ChAT % IR (inhibition rate)
# T3 construct: made in house; host or cells: E. coli BL21 Rosetta2
# T3 sequence (P28329 1-630 isoform P28329-3): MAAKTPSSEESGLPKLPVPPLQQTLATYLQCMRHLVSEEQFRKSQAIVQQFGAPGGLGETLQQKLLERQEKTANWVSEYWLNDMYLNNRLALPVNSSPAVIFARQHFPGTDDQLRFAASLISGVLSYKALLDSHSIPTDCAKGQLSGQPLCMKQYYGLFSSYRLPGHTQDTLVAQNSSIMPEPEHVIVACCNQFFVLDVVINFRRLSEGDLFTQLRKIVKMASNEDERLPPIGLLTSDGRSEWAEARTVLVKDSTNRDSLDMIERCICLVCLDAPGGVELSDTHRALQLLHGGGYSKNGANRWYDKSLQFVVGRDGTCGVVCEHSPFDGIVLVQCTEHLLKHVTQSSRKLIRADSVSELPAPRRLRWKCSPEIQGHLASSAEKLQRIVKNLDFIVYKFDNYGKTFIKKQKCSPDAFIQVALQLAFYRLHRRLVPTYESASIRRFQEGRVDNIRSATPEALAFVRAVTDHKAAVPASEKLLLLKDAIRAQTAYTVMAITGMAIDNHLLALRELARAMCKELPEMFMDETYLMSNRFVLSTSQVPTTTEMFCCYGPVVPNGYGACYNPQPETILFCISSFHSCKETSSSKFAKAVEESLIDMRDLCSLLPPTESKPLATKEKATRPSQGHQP
# Description: ChAT activity was measured using our newly developed fluorometric assay, using human recombinant ChAT (rChAT) protein. The reagents, choline chloride, acetyl coenzyme-A (ACoA, A2181) and 7-Diethylamino-3-(4-maleimidophenyl)-4-methylcoumarin (CPM) were purchased from Sigma-Aldrich (St. Louis, MO, USA).
# The ChAT assay could be run in either 96-well or 384-well plates. For 96-well plates, 50 μL/well of 0.212 µg/ml (final concentration) of the recombinant ChAT was incubated with 100 μM different Asinex compounds (50 μL/well) for 10–30 minutes at room temperature in dilution buffer (10 mM Tris-HCl, pH 7.4, 150 mM NaCl, 1.0 mM EDTA, 0.05% (v/v) Triton X-100). Then, 50 µL of a cocktail-A [dilution buffer containing choline chloride (final concentration 150 µM), ACoA (final concentration 13.3 µM) and CPM (final concentration 15 µM)] was added to each well. Immediately after adding the cocktail-A, the changes in fluorescence was monitored kinetically at 479 nm after exciting at 390 nm at 1–2 minute intervals for 15–20 minutes using a microplate spectrophotometer reader (Infinite M1000, Tecan).
# Each Asinex compounds were run in triplicates. On each 96-wells plate, several enzyme wells without inhibitor were also included during measurements as control and for estimating the inhibition level. Negative controls were wells without enzyme. The percentage inhibition for each Asinex compound was calculated based on the enzyme control value as a reference (100% activity). The compounds showing over 50% inhibition of enzyme activity were selected for further kinetic studies.
# as §2
# The Michaelis-Menten constant (Km) and maximal velocity (Vmax) values were calculated from substrate-velocity curve after fitting the data with non-linear regression Michaelis-Menten kinetic function. The Km and Vmax values were further used to plot the Lineweaver-Burk plots; the plots were fitted using linear regression function.
# [5] = molecular target: T3, human rChAT; assay: as above; assay type: biochemical; conditions: mean ± SEM of two experiments
# [6] = system: ChAT; parameters: method as in PMID 27507101; conditions: as previously reported by our group ref 26; cited from earlier work
# [7] = 200 µM compound, compared to control, mean of three experiments in triplicate
# [8] = substrate BTC 1 mM, mean of two experiments
# [9] = 100 µM compound, compared to control, mean of three experiments in triplicate
# [10] = 200 µM compound, compared to control, mean of three experiments in triplicate, 200 µM
# [11] = Lineweaver-Burk plot and nonlinear regression fit
structure (smiles),measurement,setting,value
O=C(NC1CCCC1)c1ccc(CN2CCN(Cc3ccccc3)CC2)cc1 [Compound A2],inhibition at 200 µM,[1]; [7],0%
same,inhibition at 200 µM,[2]; [7],> 50%
same,Ki,[2]; mean of two experiments,84.9 µM
same,IC50,[2]; [8],527 µM
same,% of cell proliferation,[3]; 10 µM,62.1 ± 4.0%
same,% of cell proliferation,[3]; 50 µM,72.2 ± 13.1%
same,inhibition at 100 µM,[4]; [9],6.9%
CCc1ccc2[nH]c3nc(SCCC(=O)N4CCCCCC4)nnc3c2c1 [Compound B1],AChE % IR (inhibition rate),[1]; [10],9.1%
same,inhibition at 200 µM,[1]; [7],9%
same,BuChE % IR (inhibition rate),[2]; [10],14.8%
same,inhibition at 200 µM,[2]; [7],15%
same,Vmax of rChAT,[5]; inhibitor 2.0 µM,189.6 ± 17.3 µM/min
same,Vmax of rChAT,[5]; inhibitor 10.0 µM,154.3 ± 13.4 µM/min
same,Vmax of rChAT,[5]; inhibitor 50.0 µM,73.5 ± 9.7 µM/min
same,Vmax of rChAT,[5]; inhibitor 250.0 µM,54.9 ± 6.8 µM/min
same,mode of inhibition of human rChAT,[4]; [11],mixed-model inhibition
same,Vmax of rChAT,"[4]; inhibitor 0.4 µM, mean ± SEM of two experiments",247.3 ± 17.8 µM/min
same,Ki,[4]; mean of two experiments,~9.4 µM and 9.4 µM
same,IC50,"[4]; substrate concentrations 20 to 80 µM, mean of two experiments",~7 µM and 7 µM
CCn1c(CNC(=O)COc2ccccc2F)cc2ccccc21 [Compound C2],inhibition at 200 µM,[1]; [7],0%
same,mode of inhibition of BuChE,[2]; Lineweaver-Burk plot and nonlinear regression analysis,competitive mode of inhibition
same,Ki,[2]; mean of two experiments,59.6 µM
same,IC50,[2]; [8],~365 µM and 365 µM
same,% of cell proliferation,[3]; 10 µM,87.7 ± 5.0%
same,% of cell proliferation,[3]; 50 µM,76.2 ± 7.6%
same,inhibition at 100 µM,[4]; [9],0%
CCn1c(CNC(=O)COc2ccc(F)cc2)cc2ccccc21 [Compound C4],inhibition at 200 µM,[1]; [7],4.9%
same,inhibition at 200 µM,[2]; [7],> 50%
same,Ki,[2]; mean of two experiments,59.4 µM
same,IC50,[2]; [8],528 µM
same,% of cell proliferation,[3]; 10 µM,82.4 ± 4.5%
same,% of cell proliferation,[3]; 50 µM,84.0 ± 10.0%
same,inhibition at 100 µM,[4]; [9],0%
O=C(NCc1ccc(CN2CCCCC2)cc1)c1nc(-c2ccc(C(F)(F)F)cc2)no1 [Compound C5],mode of inhibition of AChE,[1]; [11],non-competitive mode of inhibition
same,Ki,[1],23.7 µM
same,IC50,[1],~6.3 µM and 6.3 µM
same,inhibition at 200 µM,[2]; [7],> 50%
same,BuChE IC50,[2]; [8],could not be calculated due to lack of complete inhibition even at the highest tested concentration of 300 µM
same,% of cell proliferation,[3]; 10 µM,78.9 ± 3.3%
same,% of cell proliferation,[3]; 50 µM,36.1 ± 2.4%
same,inhibition at 100 µM,[4]; [9],0%
CCN(CC)C(=O)c1cccc(Nc2ccc(-c3ccccc3OC)nn2)c1 [Compound D3],inhibition at 200 µM,[1]; [7],> 50%
same,Ki,[1],177 µM
same,IC50,[1],251 µM
same,inhibition at 200 µM,[2]; [7],20.7%
same,% of cell proliferation,[3]; 10 µM,79.2 ± 2.5%
same,% of cell proliferation,[3]; 50 µM,66.2 ± 4.0%
same,inhibition at 100 µM,[4]; [9],0%
COc1cc(CN2CCN(Cc3ccccc3Cl)CC2)c([N+](=O)[O-])cc1OC [Compound D4],Ki,[1],141 µM
same,IC50,[1],146 µM
same,inhibition at 200 µM,[2]; [7],18.2%
same,% of cell proliferation,[3]; 10 µM,84.0 ± 3.8%
same,% of cell proliferation,[3]; 50 µM,68.1 ± 1.4%
same,inhibition at 100 µM,[4]; [9],3.5%
"C[N+](C)(C)CCC(=O)c1cccc2ccccc12.[I-] [α-NETA, 2-(alpha-naphthoyl)ethyltrimethylammonium iodide, reference compound]",IC50,[6],0.1 µM
same,ChAT % IR (inhibition rate),"[4]; 100 µM compound, compared to control, mean of three experiments in triplicate, 100 µM",93.7%
same,inhibition at 100 µM,[4]; [9],93%
